Test results as given in US20250206732A1, “COMPOUNDS AND METHODS FOR THE TARGETED DEGRADATION OF KRAS” (Arvinas Operations, Inc., priority 2022, published 2025).

Target: T1, AsPC-1 HiBiT-KRASG12D (Homo sapiens, UniProt P01116, G12D)
T1 construct: insert the HiBiT tag onto the N-terminus of one or more of the endogenous KRAS alleles; endogenous in cells; host or cells: AsPC-1 (ATCC CRL-1682), CRISPR-Cas9 knock-in clone, one tagged allele
Test: HiBiT degradation assay (G12D), AsPC-1 HiBiT-KRASG12D cells
Type: cell-based
Settings: 24 hours treatment; for Dmax: ASPC1, AsPC-1 HiBiT-KRASG12D cells, maximum degradation observed; for DC50: AsPC-1 HiBiT-KRASG12D cells, HiBiT luminescence
Procedure, shortened: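 Luminescence read-out of HiBiT-tagged endogenous KRASG12D in AsPC-1 cells after 24 h compound exposure at 37° C; lytic Nano-Glo HiBiT detection, 45 min at room temperature. A parallel alamar blue read (4 h) checked viability, normalized to DMSO-only controls.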

T1 sequence (P01116 1-188 isoform P01116-2 G12D): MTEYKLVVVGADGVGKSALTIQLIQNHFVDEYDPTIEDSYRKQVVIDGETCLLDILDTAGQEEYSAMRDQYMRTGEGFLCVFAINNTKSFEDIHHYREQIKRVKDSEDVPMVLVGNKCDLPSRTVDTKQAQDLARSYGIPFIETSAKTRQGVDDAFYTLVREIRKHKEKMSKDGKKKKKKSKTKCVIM

| SMILES | Dmax [%] | DC50 [nM] |
| --- | --- | --- |
| CCc1cccc2cc(O)cc(-c3ncc4c(N5CC6CCC(C5)N6)nc(OC[C@]56CCCN5[C@H](COC(=O)N5C[C@H](C)N(c7cc([C@H](C(=O)N8C[C@H](O)C[C@H]8C(=O)N[C@@H](C)c8ccc(-c9scnc9C)cc8)C(C)C)on7)C[C@H]5C)CC6)nc4c3F)c12 [Compound 296, [(3S,8R)-8-[[4-(3,8-diazabicyclo[3.2.1]octan-3-yl)-7-(8-ethyl-3-hydroxy-1-naphthyl)-8-fluoro-pyrido[4,3-d]pyrimidin-2-yl]oxymethyl]-1,2,3,5,6,7-hexahydropyrrolizin-3-yl]methyl (2R,5S)-4-[5-[(1R)-1-[(2S,4R)-4-hydroxy-2-[[(1S)-1-[4-(4-methylthiazol-5-yl)phenyl]ethyl]carbamoyl]pyrrolidine-1-carbonyl]-2-methyl-propyl]isoxazol-3-yl]-2,5-dimethyl-piperazine-1-carboxylate] | 80 to 100 | < 600 |
| CCc1cccc2cc(O)cc(-c3ncc4c(N5CC6CCC(C5)N6)nc(OC[C@]56CCCN5[C@H](COC(=O)N5C[C@@H](C)N(c7cc([C@@H](C(=O)N8C[C@H](O)C[C@H]8C(=O)N[C@@H](C)c8ccc(-c9scnc9C)cc8)C(C)C)on7)C[C@@H]5C)CC6)nc4c3F)c12 [Compound 297, [(3S,8R)-8-[[4-(3,8-diazabicyclo[3.2.1]octan-3-yl)-7-(8-ethyl-3-hydroxy-1-naphthyl)-8-fluoro-pyrido[4,3-d]pyrimidin-2-yl]oxymethyl]-1,2,3,5,6,7-hexahydropyrrolizin-3-yl]methyl (2S,5R)-4-[5-[(1S)-1-[(2S,4R)-4-hydroxy-2-[[(1S)-1-[4-(4-methylthiazol-5-yl)phenyl]ethyl]carbamoyl]pyrrolidine-1-carbonyl]-2-methyl-propyl]isoxazol-3-yl]-2,5-dimethyl-piperazine-1-carboxylate] | < 20 | < 600 |
| CCc1cccc2cc(O)cc(-c3ncc4c(N5CC6CCC(C5)N6)nc(OC[C@@H]5CC[C@@H](COC(=O)N6CCN(c7cc([C@@H](C(=O)N8C[C@H](O)C[C@H]8C(=O)N[C@@H](C)c8ccc(-c9scnc9C)cc8)C(C)C)on7)[C@H](C)C6)N5C)nc4c3F)c12 [Compound 298, [(2S,5S)-5-[[4-(3,8-diazabicyclo[3.2.1]octan-3-yl)-7-(8-ethyl-3-hydroxy-1-naphthyl)-8-fluoro-pyrido[4,3-d]pyrimidin-2-yl]oxymethyl]-1-methyl-pyrrolidin-2-yl]methyl (3R)-4-[5-[(1S)-1-[(2S,4R)-4-hydroxy-2-[[(1S)-1-[4-(4-methylthiazol-5-yl)phenyl]ethyl]carbamoyl]pyrrolidine-1-carbonyl]-2-methyl-propyl]isoxazol-3-yl]-3-methyl-piperazine-1-carboxylate] | – | > 3000 |
| CCc1cccc2cc(O)cc(-c3ncc4c(N5CCCCCC5)nc(OC[C@]56CCCN5[C@H](COC(=O)N5CC(Oc7cc([C@H](C(=O)N8C[C@H](O)C[C@H]8C(=O)N[C@@H](C)c8ccc(-c9scnc9C)cc8)C(C)C)on7)C5)CC6)nc4c3F)c12 [Compound 300] | 80 to 100 | < 600 |
| CCc1cccc2cc(O)cc(-c3ncc4c(N5CC6CCC(C5)N6)nc(OC[C@@H]5CC[C@@H](COC(=O)N6CCN(c7cc([C@H](C(=O)N8C[C@H](O)C[C@H]8C(=O)N[C@@H](C)c8ccc(-c9scnc9C)cc8)C(C)C)on7)[C@H](C)C6)N5C)nc4c3F)c12 [Compound 301, [(2S,5S)-5-[[4-(3,8-diazabicyclo[3.2.1]octan-3-yl)-7-(8-ethyl-3-hydroxy-1-naphthyl)-8-fluoro-pyrido[4,3-d]pyrimidin-2-yl]oxymethyl]-1-methyl-pyrrolidin-2-yl]methyl (3R)-4-[5-[(1R)-1-[(2S,4R)-4-hydroxy-2-[[(1S)-1-[4-(4-methylthiazol-5-yl)phenyl]ethyl]carbamoyl]pyrrolidine-1-carbonyl]-2-methyl-propyl]isoxazol-3-yl]-3-methyl-piperazine-1-carboxylate] | 80 to 100 | < 600 |
| CCc1cccc2cc(O)cc(-c3ncc4c(N5CC6CCC(C5)N6)nc(OC[C@]56CCCN5[C@H](COC(=O)N5C[C@H](C)N(c7cc([C@@H](C(=O)N8C[C@H](O)C[C@H]8C(=O)N[C@@H](C)c8ccc(-c9scnc9C)cc8)C(C)C)on7)C[C@H]5C)CC6)nc4c3F)c12 [Compound 302, [(3S,8R)-8-[[4-(3,8-diazabicyclo[3.2.1]octan-3-yl)-7-(8-ethyl-3-hydroxy-1-naphthyl)-8-fluoro-pyrido[4,3-d]pyrimidin-2-yl]oxymethyl]-1,2,3,5,6,7-hexahydropyrrolizin-3-yl]methyl (2R,5S)-4-[5-[(1S)-1-[(2S,4R)-4-hydroxy-2-[[(1S)-1-[4-(4-methylthiazol-5-yl)phenyl]ethyl]carbamoyl]pyrrolidine-1-carbonyl]-2-methyl-propyl]isoxazol-3-yl]-2,5-dimethyl-piperazine-1-carboxylate] | 20 to 60 | 1000 to 3000 |
| C#Cc1c(F)ccc2cc(O)cc(-c3ncc4c(N5CC6CCC(C5)N6)nc(OC[C@]56CCCN5[C@H](COC(=O)N5CC(Oc7cc([C@@H](C(=O)N8C[C@H](O)C[C@H]8C(=O)N[C@@H](C)c8ccc(-c9scnc9C)cc8)C(C)C)on7)C5)CC6)nc4c3F)c12 [Compound 303] | 60 to 80 | < 600 |
| CCc1cccc2cncc(-c3ncc4c(N5CC6CCC(C5)N6)nc(OCCN5CCC(COc6cc([C@H](C(=O)N7C[C@H](O)C[C@H]7C(=O)N[C@@H](C)c7ccc(-c8scnc8C)cc7)C(C)C)on6)CC5)nc4c3F)c12 [Compound 304] | – | > 3000 |
| CCc1cccc2cc(O)cc(-c3ncc4c(N5CCCCCC5)nc(OC[C@]56CCCN5[C@H](COC(=O)N5CC(Oc7cc([C@@H](C(=O)N8C[C@H](O)C[C@H]8C(=O)N[C@@H](C)c8ccc(-c9scnc9C)cc8)C(C)C)on7)C5)CC6)nc4c3F)c12 [Compound 305] | 20 to 60 | 600 to 1000 |
| Cc1ncsc1-c1ccc([C@H](C)NC(=O)[C@@H]2C[C@@H](O)CN2C(=O)[C@@H](c2cc(OC3CN(C(=O)OC[C@@H]4CC[C@@]5(COc6nc(N7CC8CCC(C7)N8)c7cnc(-c8cc(O)cc(Cl)c8C8CC8)c(F)c7n6)CCCN45)C3)no2)C(C)C)cc1 [Compound 306] | 80 to 100 | < 600 |
| CCc1cccc2cccc(-c3ncc4c(N5CC6CCC(C5)N6)nc(OC[C@]56CCCN5[C@H](COc5cc([C@H](C(=O)N7C[C@H](O)C[C@H]7C(=O)N[C@@H](C)c7ccc(-c8scnc8C)cc7)C(C)C)on5)CC6)nc4c3F)c12 [Compound 309, (2S,4R)-1-[(2R)-2-[3-[[(3S,8R)-8-[[4-(3,8-diazabicyclo[3.2.1]octan-3-yl)-7-(8-ethyl-1-naphthyl)-8-fluoro-pyrido[4,3-d]pyrimidin-2-yl]oxymethyl]-1,2,3,5,6,7-hexahydropyrrolizin-3-yl]methoxy]isoxazol-5-yl]-3-methyl-butanoyl]-4-hydroxy-N-[(1S)-1-[4-(4-methylthiazol-5-yl)phenyl]ethyl]pyrrolidine-2-carboxamide] | < 20 | < 600 |
| CCc1cccc2cccc(-c3ncc4c(N5CC6CCC(C5)N6)nc(OC[C@]56CCCN5[C@H](COc5cc([C@@H](C(=O)N7C[C@H](O)C[C@H]7C(=O)N[C@@H](C)c7ccc(-c8scnc8C)cc7)C(C)C)on5)CC6)nc4c3F)c12 [Compound 310, (2S,4R)-1-[(2S)-2-[3-[[(3S,8R)-8-[[4-(3,8-diazabicyclo[3.2.1]octan-3-yl)-7-(8-ethyl-1-naphthyl)-8-fluoro-pyrido[4,3-d]pyrimidin-2-yl]oxymethyl]-1,2,3,5,6,7-hexahydropyrrolizin-3-yl]methoxy]isoxazol-5-yl]-3-methyl-butanoyl]-4-hydroxy-N-[(1S)-1-[4-(4-methylthiazol-5-yl)phenyl]ethyl]pyrrolidine-2-carboxamide] | 80 to 100 | < 600 |
| C#Cc1c(F)ccc2cc(O)cc(-c3ncc4c(N5CC6CCC(C5)N6)nc(OC[C@]56CCCN5[C@H](COc5cc([C@H](C(=O)N7C[C@H](O)C[C@H]7C(=O)N[C@@H](C)c7ccc(-c8scnc8C)cc7)C(C)C)on5)CC6)nc4c3F)c12 [Compound 311, (2S,4R)-1-[(2R)-2-[3-[[(3S,8R)-8-[[4-(3,8-diazabicyclo[3.2.1]octan-3-yl)-7-(8-ethynyl-7-fluoro-3-hydroxy-1-naphthyl)-8-fluoro-pyrido[4,3-d]pyrimidin-2-yl]oxymethyl]-1,2,3,5,6,7-hexahydropyrrolizin-3-yl]methoxy]isoxazol-5-yl]-3-methyl-butanoyl]-4-hydroxy-N-[(1S)-1-[4-(4-methylthiazol-5-yl)phenyl]ethyl]pyrrolidine-2-carboxamide] | 80 to 100 | < 600 |
| C#Cc1c(F)ccc2cc(O)cc(-c3ncc4c(N5CC6CCC(C5)N6)nc(OC[C@]56CCCN5[C@H](COc5cc([C@@H](C(=O)N7C[C@H](O)C[C@H]7C(=O)N[C@@H](C)c7ccc(-c8scnc8C)cc7)C(C)C)on5)CC6)nc4c3F)c12 [Compound 312, (2S,4R)-1-[(2S)-2-[3-[[(3S,8R)-8-[[4-(3,8-diazabicyclo[3.2.1]octan-3-yl)-7-(8-ethynyl-7-fluoro-3-hydroxy-1-naphthyl)-8-fluoro-pyrido[4,3-d]pyrimidin-2-yl]oxymethyl]-1,2,3,5,6,7-hexahydropyrrolizin-3-yl]methoxy]isoxazol-5-yl]-3-methyl-butanoyl]-4-hydroxy-N-[(1S)-1-[4-(4-methylthiazol-5-yl)phenyl]ethyl]pyrrolidine-2-carboxamide] | 20 to 60 | 1000 to 3000 |
